From ChEMBL document CHEMBL6087449, “Identification of an Isoxazole Derivative as an Antitubercular Compound for Targeting the FadD Enzymes of Mycobacterium tuberculosis” (J Med Chem, 2025) come the findings set out here.

In assay [1] the test system is Mycobacterium tuberculosis. Nature of the assay: Antitubercular activity against Mycobacterium tuberculosis H37Rv. It counts as functional.
Assay [2] relates to Mycolicibacterium smegmatis. Nature of the assay: Antimycobacterial activity against Mycobacterium smegmatis. It counts as functional.
Assay [3] deals with Mycobacterium tuberculosis. Description: Antitubercular activity against Mycobacterium tuberculosis by alamar blue assay. It counts as functional.
The test system of assay [4] is Mycobacterium tuberculosis. Description: Antitubercular activity against Mycobacterium tuberculosis H37Rv assessed as inhibition of bacterial growth incubated for 5 days by Alamar Blue based assay. In kind it is functional, organism-based. The settings on record: for IC50: 120 h. (In general: Resazurin is reduced to fluorescent resorufin, in cell work by metabolically active cells.)

In brackets after ≈: the same amount, converted by molar mass. Activity calls are given as the source filed them. No cut-off for these calls is given here.

On to `CCCCCCCCCCCC(=O)NS(=O)(=O)OC[C@H]1O[C@@H](n2cnc3c(N)ncnc32)[C@H](O)[C@@H]1O`, for which the MIC was found to be 100 µM (≈ 52.9 µg/mL) in assay [1], 215 µM (≈ 114 µg/mL) in assay [2] and 100 µM (≈ 52.9 µg/mL) in assay [3].
In the case of `Cc1ccc(O)c(-c2cc(C(F)(F)C(F)F)no2)c1`, the half-maximal inhibitory concentration (IC50) in assay [4] stood at 12.8 µg/mL (≈ 46.5 µM).
`Cc1ccc(O)c(-c2cc(C(F)(F)F)no2)c1`: the IC50 in assay [4] was found to be 10.5 µg/mL (≈ 43.2 µM).
With `Oc1ccc(-c2onc(C(F)(F)F)c2-c2ccc(Cl)cc2)c(O)c1`, in assay [4] (time 5.0 day), the outcome was inactive.

As usually defined, the MIC is the lowest concentration that inhibits growth of the organism. A higher MIC goes with a less susceptible organism. One may read the IC50 as the midpoint of a concentration-inhibition curve.
